Measured values taken from patent US5919755A, “Medical use of heme products” (Leiras OY, priority 1995, dated 1999).
Values joined by “and” are separate entries in the source; they are usually repeats but may differ in a detail not shown here. Equal entries are not always repeated. Where two headings read alike, the source gives them in different places.

Legend:
[1] = cited from earlier work
[2] = cited from earlier work; remark: listed apart in the source
[3] = humans, intravenous dose of 3 mg/kg; cited from earlier work
[4] = system: myelodysplastic syndromes; details: part of MDS patients; cited from earlier work
blasts in bone marrow = assay: Proportion of blasts in the bone marrow of myelodysplastic patients; assay type: in vivo, human; details: for Blasts in bone marrow, after / Myeloblasts in bone marrow, after / Sum of blasts and myeloblasts in bone marrow, after: one week after last of 15 infusions, 3 mg hemin/kg i.v.; for Myelodysplastic syndrome subtype, after: after treatment
Protocol: 2. Proportion of blasts in the bone marrow of myelodysplastic patients
In a clinical study patients with myelodysplastic syndromes were treated with intravenous infusions of heme arginate at the dose level 3 mg hemin/kg. The infusions were given first on four consecutive days and after that once a week for eleven weeks. Thus totally 15 infusions were given to each patient.
Bone marrow sample was collected from each patient before start of the heme arginate infusions and one week after the last infusion. Proportion of blasts and myeloblasts were determined in the bone marrow samples by using standard hematological laboratory procedures. The definition of "a blast" as used in the classification of myelodysplastic syndromes includes both blasts and myeloblasts (9).

plasma proteins = details: after infusion into the blood stream; cited from earlier work
myelodysplastic syndrome [5] = details: cited from earlier work
[6] = rat, intravenous dose of 3 mg/kg; cited from earlier work
[7] = system: human erythroid precursors; assay: Induction of production of fetal hemoglobin in vitro (two-phase liquid culture, HPLC); assay type: cell-based
From the text: Cells grown in phase II in the presence of the indicated concentrations of heme arginate, were harvested on day 13 and their hemoglobin quantitated.
Cells grown in phase II in the presence of the indicated concentrations of heme arginate, were harvested on day 13 and their hemoglobin chromatographed and quantitated.
Cells grown in phase II in the absence or presence of heme arginate from day 0 and with the indicated concentrations of hydroxyurea from day 5, were harvested on day 13 and their hemoglobin chromatographed and quantitated.
3. Induction of production of fetal hemoglobin in vitro
Peripheral blood mononuclear cells obtained from normal volunteers and either sickle cell anemia or β-thalassemia patients were isolated by centrifugation on a gradient of Ficoll-Hypaque and seeded at a density of 5×10^6 cells/ml in alpha-minimal essential medium supplemented with 10% fetal calf serum (FCS), 1 μg/ml cyclosporin A, and 10% conditioned medium collected from cultures of the 5637 bladder-carcinoma cell line. The cultures were incubated at +37° C. in an atmosphere of 5% CO2 in air with extra humidity.
Following 7-day incubation in this phase I culture, the non-adherent cells were harvested, washed, and recultured in fresh medium composed of alpha-medium, 30% FCS, 1% deionized bovine serum albumin, 1×10^-5 M β-mercaptoethanol, 1.5 mM glutamine, 1×10^-6 M dexamethasone, and 1 U/ml human recombinant erythropoietin. Hemoglobin containing cells were determined by using the benzidine-HCl procedure.
The effect of heme arginate on fetal hemoglobin (Hb-F) production was determined by growing human erythroid precursors in the second phase of the above described liquide cell culture in the presence of 1 U/ml erythropoietin and different concentrations of heme arginate. The combination effect of heme arginate and hydroxyurea was investigated with 100 μM heme arginate added on day 0 and various concentrations of hydroxyurea added on day 5. Cells were harvested on day 13 and lysed, and their total hemoglobin and Hb-F content was analyzed by cation-exchange HPLC.

myelodysplastic syndrome [8] = details: cited from earlier work; remark: listed apart in the source
[9] = system: polychromatic erythrocytes; assay: Mouse micronucleus assay (micronucleated polychromatic erythrocytes in bone marrow smears); assay type: in vivo, mouse (CD-1 outbred, Swiss origin); details: for Incidence: number of micronucleated polychromatic erythrocytes per 1000 polychromatic erythrocytes examined: 36 mg/kg i.v.
From the text: 1. Mouse micronucleus assay
Micronuclei are seen in a variety of cells, but erythrocytes are chosen for examination since micronuclei are easily detected in this cell type.
A few hours after the last mitosis is completed, erythroblasts expel their nucleus. Young erythrocytes stain blue with Giemsa due to the presence of ribonucleic acid, which gradually disappears so that more mature erythrocytes stain pink with Giemsa. The young blue-staining cells are known as polychromatic erythrocytes and micronuclei are readily detected in this cell type.
The test animals were specific pathogen free CD-1 outbred mice of Swiss origin weighing between 22 and 24 grams and approximately 40 days old during the study. The mice were acclimatized for four days and after that dosed by intravenous injection with a volume of 10 ml/kg body weight either with saline solution (vehicle control) or with heme arginate solution at the dose 36 mg hemin/kg body weight. Five male and five female mice were sacrificed by cervical dislocation 24, 48, and 72 hours after dosing. A direct bone marrow smear was made from femur onto a slide containing a drop of calf serum. The smears were fixed in methanol, air dried, and stained for 10 minutes in 10% Giemsa solution. The stained smears were examined (under code) by light microscopy to determine the incidence of micronucleated cells per 1000 polychromatic erythrocytes per animal.

[10] = Table 3, one line per patient, baseline before treatment
[11] = Table 4, patients not considered good responders, one line per patient, baseline before treatment
[12] = Table 4, patients not considered good responders, one line per patient
[13] = of 26 patients, 2-3 mg hemin/kg

Q: With `C=CC1=C(C)c2cc3[n-]c(cc4[n-]c(cc5nc(cc1n2)C(C)=C5C=C)c(C)c4CCC(=O)O)c(CCC(=O)O)c3C.O.[Fe+2]` [hematin] as the compound, how does the adverse effects ([1]; in vivo, iv) read?
A: Its adverse effects is “often complicated by adverse effects, including phlebitis at the infusion site and disturbances in hemostasis”.

Q: Which solubility [2] does the source give for Hemin here?
A: The solubility was “poorly soluble”.

Q: What does the source list for heme arginate?
A: AUC [3]: 998 µg/mL/h; adverse effects ([1]; intravenous use, incl. phlebitis at infusion site and disturbances in hemostasis): lack of serious adverse effects; adverse effects ([1]; intravenous use, incl. phlebitis at infusion site and disturbances in hemostasis, listed as Heme arginate): seldom produces these effects and therefore is better tolerated; effect on blood cell counts [4]: clinically effective in part of MDS patients by increasing the blood cell counts; Blasts in bone marrow, before (blasts in bone marrow; Table 3, RAEB or RAEB-t patients, one line per patient, baseline before treatment): 4% and 3% and 6% and 15% and 10%; Blasts in bone marrow, after (blasts in bone marrow; Table 3, RAEB or RAEB-t patients, one line per patient): 0% and 1% and 4% and 6%; Myelodysplastic syndrome subtype, after (blasts in bone marrow; Table 3, one line per patient): RARS and RAEB; Myeloblasts in bone marrow, before (blasts in bone marrow; [10]): 6% and 8% and 4% and 3% and 20%; Myelodysplastic syndrome subtype, before (blasts in bone marrow; [10]): RAEB and RAEB-t; Myeloblasts in bone marrow, after (blasts in bone marrow; Table 3, one line per patient): 4% and 3%; Sum of blasts and myeloblasts in bone marrow, after (blasts in bone marrow; Table 3 and text, one line per patient): 4% and 8% and 10%; patients with a clear decrease of blasts (blasts in bone marrow; Table 3 patients, of 21): 5/21; Blasts in bone marrow, before (blasts in bone marrow; Table 4, RARS or RAEB patients not considered good responders, one line per patient, baseline before treatment): 5 and 8 and 2 and 3 and 1 and 4 and 0; Myelodysplastic syndrome subtype, after (blasts in bone marrow; Table 4, one line per patient): RAEB and RARS; Myelodysplastic syndrome subtype, before (blasts in bone marrow; Table 4, one line per patient, baseline before treatment): RAEB and RARS; Myeloblasts in bone marrow, before (blasts in bone marrow; [11]): 4 and 2 and 8 and 9 and 3 and 10 and 5 and 1; Sum of blasts and myeloblasts in bone marrow, before (blasts in bone marrow; [11]): 9 and 12 and 4 and 5 and 7 and 14 and 13 and 3 and 1 and 10; Blasts in bone marrow, after (blasts in bone marrow; [12]): 5 and 8 and 0 and 2 and 3 and 1 and 4; Myeloblasts in bone marrow, after (blasts in bone marrow; [12]): 3 and 2 and 1 and 7 and 6 and 10 and 9 and 5 and 0; Sum of blasts and myeloblasts in bone marrow, after (blasts in bone marrow; [12]): 8 and 11 and 2 and 3 and 7 and 13 and 4 and 12 and 6 and 1 and 9; patients with a smaller decrease of blasts (blasts in bone marrow; Table 4 patients, of 21): 12/21; patients with no effect on blasts (blasts in bone marrow; Table 4 patients, of 21): 1/21; patients with slight increase of blasts (blasts in bone marrow; Table 4 patients, of 21): 3/21; patients with some decrease of blasts, totally (blasts in bone marrow; all patients, of 21): 17/21; effect on proportion of blasts in bone marrow (blasts in bone marrow; some MDS patients): able to decrease proportion of blasts; plasma protein binding (plasma proteins): quickly bound to the plasma proteins in monomeric form; patients with MDS progression (myelodysplastic syndrome [5]; of 26 patients (13)): 4/26; patients showing improvement in cytopenias during the therapy (myelodysplastic syndrome [5]; [13]): Six; patients with long-lasting good response with normal or close to normal blood cell counts (myelodysplastic syndrome [5]; [13]): three; duration of long-lasting good response (myelodysplastic syndrome [5]; single patients, 2-3 mg hemin/kg): > 11 months and > 12 months and 25 months; AUC [6]: 64 µg/mL/h; amount of total hemoglobin produced ([7]; FIG. 1, phase II culture, harvested day 13, erythroid precursors from patients with hemoglobinopathies): increases the amount of total hemoglobin; proportion of fetal hemoglobin (Hb-F) ([7]; FIG. 2, phase II culture, harvested day 13, heme arginate alone): increases the proportion of fetal hemoglobin; effect of heme arginate on proportion of fetal hemoglobin (Hb-F) in presence of hydroxyurea ([7]; FIG. 3, heme arginate 100 μM from day 0, hydroxyurea 25-200 μM from day 5, harvested day 13): potentiated by the presence of hydroxyurea; patients with MDS progression (myelodysplastic syndrome [8]; of 14 patients (15)): 4/14; patients with decrease of blasts (myelodysplastic syndrome [8]; of 14 patients (15), considered to be an occasional event): 1/14; patients with long-lasting improvement in hemoglobin values and/or platelet counts (myelodysplastic syndrome [8]; of 14 patients, 3 mg hemin/kg): Three; duration of long-lasting improvement in hemoglobin values and/or platelet counts (myelodysplastic syndrome [8]; single patients, 3 mg hemin/kg): 5 months and 26 months and > 41 months; Incidence: number of micronucleated polychromatic erythrocytes per 1000 polychromatic erythrocytes examined ([9]; killed 24 hours after dosing, vehicle control 1.2): 1.1 per 1000 polychromatic erythrocytes; Incidence: number of micronucleated polychromatic erythrocytes per 1000 polychromatic erythrocytes examined ([9]; killed 48 hours after dosing, vehicle control 1.0): 0.5 per 1000 polychromatic erythrocytes; Incidence: number of micronucleated polychromatic erythrocytes per 1000 polychromatic erythrocytes examined ([9]; killed 72 hours after dosing, vehicle control 1.0): 0.4 per 1000 polychromatic erythrocytes; effect on incidence of mutagenesis (mouse micronucleus test) ([9]; in vivo, 36 mg/kg): able to decrease incidence of mutagenesis; solubility [2]: increases the aqueous solubility
